Data as given in patent US20050004044A1, “Use of orsaponin [3beta, 16beta, 17 alpha-trihydroxycholost-5-en-22-one 16-0-(2-0-4-methoxybenzoyl-beta-D-xylopyranosyl)-(1->3)-(2-0-acetyl-alpha-L-arabinopyranoside)] or OSW-1 and its derivatives for cancer therapeutics” (priority 2003, published 2005).
Like-named read-outs stand apart in the source and are kept apart here.

What was measured:
primary CLL cells = test: cells; format: cell-based
Experimental: FIG. 7. Effect of Orsaponin (OSW-1) on cell survival in primary human leukemia cells isolated from patients with chronic lymphocytic leukemia (CLL). Freshly isolated primary CLL cells were incubated with the indicated concentrations of OSW-1 for 72 hours in vitro. Cell viability was measured by MTT assay. […] Data from representative experiments with CLL cells from three different patients are shown. A total of 23 CLL blood samples were tested for sensitivity to OSW-1 in the same fashion.
(§1) 1. MTT Assays. For these assays either cancer cell lines were used. Alternatively, mononuclear cells from peripheral blood samples of CLL patients or normal donors were separated by Ficoll Hipaque fractionation and resuspended in DMEM complete medium. Malignant cells from various human cell lines (usually at 5×10^4 cells/ml) or mononuclear cells from peripheral blood of leukemia patients and healthy donors (1×10^6 cells/ml) were incubated in either αMEM or RPMI 1640 with or without various concentrations of OSW-1 in the range of 0-10 nM. Each experimental condition was done in triplicate. After the indicated number of days (usually 3 days or 72 hours) of exposure to OSW-1, cell survival was assessed by the addition of the MTT dye to the wells. The MTT dye changes its color depending on the presence of live cells in the well. Survival of cells under orsaponin treatment was evaluated as a percentage of control cell growth. Alternatively, one can also use the dye trypan-blue which penetrates dead cells thereby allowing one to count live cells under the microscope and estimating percentage survival.
Reduction of Cell Viability in CLL-Patient-Derived Cells. […] Freshly isolated primary CLL cells were incubated with the 0-100 nM OSW-1 for 72 hours in vitro and cell viability was measured by the MTT assay.
Cytotoxic activity of 17-deoxyorsaponin was also assessed in a number of patient samples. Primary human leukemia cells isolated from 11 patients with chronic lymphocytic leukemia (CLL) were analyzed for cytotoxic activity of 17-deoxyorsaponin. […]

AsPC-1/IκBα-ND cells = test: MTT cell growth inhibition, AsPC-1 with NFκB inactivated; format: cell-based; conditions: Homo sapiens, ASPC1, 72 h
Experimental: FIG. 4. The anticancer activity of Orsaponin (OSW-1) is not affected by NFκB expression in pancreatic cancer cells. Human pancreatic cancer cells AsPC-1 with constitutive activation of NFκB or inactivation of NFκB by dominant negative IκBα (AsPC-1/IκBα-ND) were treated with the indicated concentrations of OSW-1 for 72 h. Cell growth inhibition was measured by MTT assay.
as §1, with “The MTT dye changes its color depending on the presence of live cells in the well.” left out, “Alternatively, one can also use the dye trypan-blue which penetrates dead cells thereby allowing one to count live cells under the microscope and estimating percentage survival.” left out
OSW-1 Inhibits Growth of Pancreatic Cancer Cells Irrespective of NFκB Expression. […] Cell growth inhibition was measured by MTT assay. […]

[1] = test system: malignant glioma U87-MG cells; test: MTT cell growth inhibition, U87-MG glioma; format: cell-based, human
Experimental: as §1
To test the therapeutic selectivity of Orsaponin and 17-deoxyorsaponin, their effect on human brain tumor cells (U87 malignant glioma) and normal human astrocytes were compared. The normal human astrocytes were previously immortalized by transfection with hTER to allow a long-term culture in vitro. The antiproliferative effect of Orsaponin in human malignant glioma cells (U87-MG) and normal human astrocytes was examined. Cells were incubated with various concentrations of Orsaponin for 72 h. Cell growth inhibition was measured by MTT assay (FIG. 21).

[2] = test system: normal human pulmonary cells; conditions: Mimaki et al., 1997; read-out: IC50, toxicity to normal human pulmonary cells; cited from earlier work
[3] = test system: pancreatic cancer (Panco-2) cells; test: MTT cell growth inhibition, Panco-2; format: cell-based; conditions: Mus musculus, Panco-2, 72 h
Experimental: as §1
The effect of Orsaponin and 17-deoxyorsaponin in pancreatic cancer cells was also assessed. […] Cell growth inhibition was measured by MTT assay.

[4] = test system: human ovarian cancer SKOV3 cells; test: Survival of nude mice inoculated i.p. with SKOV3; format: in vivo; conditions: i.p. 10 μg/kg/day, 5 days/week for two weeks
Experimental: FIG. 12. Nude mice were inoculated with human ovarian cancer SKOV3 cells (2×10^6/mouse, i.p., 10 mice/group). Drug treatment started on day 6 after tumor inoculation. OSW-1 was given by i.p. injection, 10 μg/kg/day, 5 days/week for two weeks.
Thus, nude mice were inoculated with human ovarian cancer SKOV3 cells at a concentration of 2×10^6/mouse, by the intraperitoneal route (i.p.) with 10 mice/group. Treatment with OSW-1 was started on day 6 after tumor inoculation. The control group was treated with saline. OSW-1 was given by i.p. injection, 10 μg/kg/day, 5 days/week for two weeks. […] When severe tumor burden and moribund signs appeared, euthanasia for the affected animal was performed according to IACUC standards.

[5] = test system: primary normal lymphocytes; test: MTT cell viability, normal lymphocytes from healthy donors; format: cell-based; conditions: Homo sapiens, Lymphocyte
Experimental: FIG. 8. Effect of Orsaponin (OSW-1) on cell survival in primary normal lymphocytes isolated from healthy donors. Freshly isolated normal lymphocytes were incubated with the indicated concentrations of OSW-1 for 72 hours in vitro. Cell viability was measured by MTT assay. The IC50 value estimated to be 4 nM and 3 nM in case #1 and #2, respectively.
as §1
As controls the effect of OSW-1 on cell survival in primary normal lymphocytes isolated from healthy donors was also analyzed. Freshly isolated normal lymphocytes were incubated with the 01-0 nM OSW-1 for 72 hours in vitro and cell viability was measured by MTT assay. As depicted in FIG. 8, the IC50 value estimated to be 4 nM and 3 nM in case #1 and #2, respectively.

COc1ccc(C(=O)OC2C(OC3C(O)COC(O[C@H]4C[C@H]5[C@@H]6CC=C7C[C@@H](O)CC[C@]7(C)[C@H]6CC[C@]5(C)[C@@]4(O)[C@H](C)C(=O)CCC(C)C)C3OC(C)=O)OCC(O)C2O)cc1 (stereo partly drawn) [OSW-1, 3β, 16β, 17 α-trihydroxycholost-5-en-22-one 16-O-(2-O-4-methoxybenzoyl-β-D-xylopyranosyl)-(1->3)-(2-O-acetyl-α-L-arabinopyranoside)]
IC50 (primary CLL cells; Homo sapiens, CLL cell, 72 h, primary CLL cells, 72 hours, MTT, mean of 23 patients, read-out: IC50, cell viability): 0.15 ± 0.26 nM
Selectivity Index (primary CLL cells; IC50 ratio of malignant/normal cells (CLL vs normal lymphocytes)): 23
IC50 (AsPC-1/IκBα-ND cells): ~0.3 nM
IC50 ([1]; Homo sapiens, U-87 MG, U87-MG, 72 h, MTT): < 0.1 nM
sensitivity of glioma cells compared with normal astrocytes ([1]; U87-MG vs normal human astrocytes): much more sensitive
IC50 [2]: 1500 nM
IC50 [3]: 0.1 nM
Survival % ([4]; 30 days): 100%
Survival % ([4]; 60 days): 50%
IC50 ([5]; 72 h, normal lymphocytes, 72 hours, case #1, read-out: IC50, cell viability): ~4 nM
IC50 ([5]; 72 h, normal lymphocytes, 72 hours, case #2, read-out: IC50, cell viability): ~3 nM
IC50 ([5]; Normal Lymphocytes, mean, read-out: IC50): 3.5 ± 0.7 nM
